Assay results: PMC11133327, “Discovery of potent antimycobacterial agents targeting lumazine synthase (RibH) of Mycobacterium tuberculosis” (Scientific Reports, 2024)

What was measured:
Format in all cases: binding
lumazine synthase (RibH) [1] = target: T1, lumazine synthase (RibH) (Mycobacterium tuberculosis, UniProt P9WHE9); assay: […]; also riboflavin displacement ([…] at […])
lumazine synthase (RibH) [2] = target: T1, lumazine synthase (RibH); assay: […]; also riboflavin displacement ([…] at […]); remark: listed apart in the source
lumazine synthase (RibH) [3] = target: T1, lumazine synthase (RibH); assay: […]; also riboflavin displacement ([…] at […]); remark: listed apart in the source
lumazine synthase (RibH) [4] = target: T1, lumazine synthase (RibH); assay: biochemical

T1 sequence (P9WHE9 whole entry): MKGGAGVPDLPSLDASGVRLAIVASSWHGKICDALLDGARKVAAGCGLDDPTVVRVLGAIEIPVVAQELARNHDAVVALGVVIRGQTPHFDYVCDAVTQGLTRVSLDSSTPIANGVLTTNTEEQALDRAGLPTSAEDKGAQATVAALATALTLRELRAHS

Structure (SMILES): O=C1NC(=Nc2ccccc2)SC1=Cc1ccc([N+](=O)[O-])o1 [A10, 5-((5-nitrofuran-2-yl)methylene)-2-(phenylimino)thiazolidin-4-one]
- Kd (lumazine synthase (RibH) [1]): 69 nM

Structure (SMILES): O=C1NC(=Nc2ccc(Cl)cc2)SC1=Cc1ccc([N+](=O)[O-])o1 [A39, 2-((4-chlorophenyl)imino)-5-((5-nitrofuran-2-yl)methylene)thiazolidin-4-one]
- Kd (lumazine synthase (RibH) [2]): 2.3 nM

Structure (SMILES): Cc1ccc(N=C2NC(=O)C(=Cc3ccc([N+](=O)[O-])o3)S2)cc1 [A52, 5-((5-nitrofuran-2-yl)methylene)-2-(p-tolylimino)thiazolidin-4-one]
- Kd (lumazine synthase (RibH) [3]): 48 nM

Structure (SMILES): Cc1cc2nc3c(=O)[nH]c(=O)nc-3n(C[C@H](O)[C@H](O)[C@H](O)CO)c2cc1C [riboflavin]
- Kd (lumazine synthase (RibH) [4]): 86 nM
